Laboratory results reported in paper PMC11904993, “Humanized Candida and NanoBiT Assays Expedite Discovery of Bdf1 Bromodomain Inhibitors With Antifungal Potential” (Advanced Science, 2025).
Where “and” joins values, the source holds several entries; their conditions need not be identical. Equal values may be shown once. Read-outs that look alike come from different tables or passages of the source.

Experiments:
CgBdf1 BD2 [1] = target: CgBdf1 BD2 (Candida glabrata, UniProt Q6FWV7); assay: biochemical; type: binding, C. glabrata; settings: for IC50: read-out: pIC50 CgBD2 (converted)
Chain of CgBdf1 BD2 (Candida glabrata, UniProt Q6FWV7) (Q6FWV7 entry or part of it): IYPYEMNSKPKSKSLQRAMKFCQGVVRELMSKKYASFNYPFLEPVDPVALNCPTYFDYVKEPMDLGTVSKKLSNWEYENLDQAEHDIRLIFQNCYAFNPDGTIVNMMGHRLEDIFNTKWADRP

[2] = system: C. glabrata strains expressing WT and mutant Bdf1; assay: Growth inhibition in liquid media, C. glabrata lab strains; settings: for OD at 600 nm: Figure S4B; for EC50: Nakaseomyces glabratus; for pEC50 growth inhibition: Fig 2C
Method: (§1) Growth on Liquid Media with C. glabrata Lab Strains: Cells were grown at 30 °C in SC+M+C‐U medium (SC medium with 5 mM methionine, 0.25 mM cysteine, without uracil) to an OD600 of 0.5–0.8. […] Plates were incubated at 30 °C and OD600 was measured using a Multiskan FC Microplate Photometer (Thermo Fisher).

CgBdf1 BD1 [3] = target: CgBdf1 BD1 (Candida glabrata, UniProt Q6FWV7); assay: HTRF assay, inhibition of H4ac4 peptide binding; set-up: species or system C. glabrata; settings: for IC50 / pIC50 CgBD1: single experiments Exp1-3; for IC50: read-out: pIC50 CgBD1 (converted)
Chain of CgBdf1 BD1 (Candida glabrata, UniProt Q6FWV7) (Q6FWV7 entry or part of it): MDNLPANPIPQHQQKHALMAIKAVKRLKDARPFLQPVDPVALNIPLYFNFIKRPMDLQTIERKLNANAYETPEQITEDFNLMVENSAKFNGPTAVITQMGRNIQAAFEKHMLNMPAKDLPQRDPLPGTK

CgBdf1 BD1 [4] = assay: Histone peptide array assay; settings: peptide array signal
Method: (§2) The array was prepared as described in the manufacturer's instructions. […] The array was then washed three times with binding buffer. Anti‐GST antibody (GE Healthcare) was used for the detection of GST‐tagged bromodomains.

CgBdf1 BD2 [5] = assay: Histone peptide array assay; settings: peptide array signal
Method: as §2

[6] = system: C. glabrata expressing humanized Bdf1 (Brd4 BDs); assay: Growth inhibition in liquid media, humanized C. glabrata strains; settings: Fig 3E, 50 µM, Exp 1-3
Method: as §1

[7] = read-out: pEC50 (WT BDF1), Fig 2D (converted), WT C. glabrata, single experiments Exp1-3
[8] = read-out: pEC50 growth inhibition, Fig 2C (converted), strain BD1 Y-F, single experiments Exp1-3
[9] = Fig 2C original data, analogs of 24
[10] = Fig 2C original data, analogs of 24, single experiments Exp1-3
[11] = strain BD2 Y-F, single experiments Exp1-3
[12] = read-out: pEC50 growth inhibition, Fig 2C (converted), strain BD2 Y-F, single experiments Exp1-3

CCOC(=O)Nc1cc(-c2ccc(C)c(NS(C)(=O)=O)c2)nn2c(C)nnc12 [Bromosporine, reference compound]
remaining activity at 0.07813 µM (CgBdf1 BD2 [1]; 24 h, CgBD2, Conc 78.13 nM, replicate experiments, read-out: HTRF signal relative to no-compound control (Figure S4A raw data)): 106%
remaining activity at 0.15625 µM (CgBdf1 BD2 [1]; 24 h, CgBD2, Conc 156.25 nM, replicate experiments, read-out: HTRF signal relative to no-compound control (Figure S4A raw data)): 113%
remaining activity at […] (CgBdf1 BD2 [1]; 24 h, CgBD2, Conc 2500 nM, replicate experiments, read-out: HTRF signal relative to no-compound control (Figure S4A raw data)): 79.8%
remaining activity at 5 µM (CgBdf1 BD2 [1]; 24 h, CgBD2, Conc 5000 nM, replicate experiments, read-out: HTRF signal relative to no-compound control (Figure S4A raw data)): 60.1%
remaining activity at 10 µM (CgBdf1 BD2 [1]; 24 h, CgBD2, Conc 10000 nM, replicate experiments, read-out: HTRF signal relative to no-compound control (Figure S4A raw data)): 30.8%
remaining activity at 20 µM (CgBdf1 BD2 [1]; 24 h, CgBD2, Conc 20000 nM, replicate experiments, read-out: HTRF signal relative to no-compound control (Figure S4A raw data)): 23.4%
IC50 (CgBdf1 BD2 [1]; Fig 1D/2A original data, single experiments Exp1-3): 4.9 µM and 4.17 µM
OD at 600 nm ([2]; WT BDF1 strain, Exp 1-3): 0.446 and 0.443 and 0.490
OD at 600 nm ([2]; bdf1-bd1Δ strain, Exp 1-3): 0.422 and 0.447 and 0.470
OD at 600 nm ([2]; bdf1-bd2Δ strain, Exp 1-3): 0.242 and 0.229 and 0.260
remaining activity at 0.07813 µM (CgBdf1 BD1 [3]; 4 h, CgBD1, Conc 78.13 nM, replicate experiments, read-out: HTRF signal relative to no-compound control (Figure S4A raw data)): 98%
remaining activity at 0.3125 µM (CgBdf1 BD1 [3]; 4 h, CgBD1, Conc 312.5 nM, replicate experiments, read-out: HTRF signal relative to no-compound control (Figure S4A raw data)): 97.9%
remaining activity at […] (CgBdf1 BD1 [3]; 4 h, CgBD1, Conc 2500 nM, replicate experiments, read-out: HTRF signal relative to no-compound control (Figure S4A raw data)): 94.3%
remaining activity at 5 µM (CgBdf1 BD1 [3]; 4 h, CgBD1, Conc 5000 nM, replicate experiments, read-out: HTRF signal relative to no-compound control (Figure S4A raw data)): 80.9%
remaining activity at 10 µM (CgBdf1 BD1 [3]; 4 h, CgBD1, Conc 10000 nM, replicate experiments, read-out: HTRF signal relative to no-compound control (Figure S4A raw data)): 75.9%
remaining activity at 20 µM (CgBdf1 BD1 [3]; 4 h, CgBD1, Conc 20000 nM, replicate experiments, read-out: HTRF signal relative to no-compound control (Figure S4A raw data)): 49.4%
IC50 (CgBdf1 BD1 [3]; Fig 1D/2A original data): 23.4 µM and 12.3 µM and 20 µM

Cc1ccc(-c2nnc(C)c(NCc3ccco3)n2)cc1 [Compound 24a]
EC50 [2, 7]: 206 µM
EC50 [2, 8]: > 251 µM
pIC50 CgBD1 (CgBdf1 BD1 [3]; [9]): 5.099 and 5.219 and 5.157
fold drop in CgBD1 inhibition (CgBdf1 BD1 [3]; relative to 24, thiophenyl replaced by furyl or methylfuryl): 3 fold

Cc1cccc(-c2nnc(C)c(NCc3ccco3)n2)c1 [Compound 24b]
IC50 (CgBdf1 BD2 [1]; [10]): 29.5 µM and 74.6 µM and > 100 µM
pEC50 growth inhibition [2, 11]: 3.930 and 3.985
EC50 [2, 7]: > 251 µM
EC50 [2, 8]: > 251 µM
EC50 [2, 12]: 74.8 µM
IC50 (CgBdf1 BD1 [3]; [9]): 12.6 µM and 14.6 µM and 22.2 µM

Cc1cccc(-c2nnc(C)c(NCc3ccc(C)o3)n2)c1 [Compound 24d]
IC50 (CgBdf1 BD2 [1]; [10]): 16.4 µM and 18.7 µM and 21.5 µM
pEC50 growth inhibition ([2]; strain BD1 Y-F, single experiments Exp1-3): 3.797 and 3.888
pEC50 growth inhibition [2, 11]: 4.459 and 4.324
pEC50 (WT BDF1) ([2]; Fig 2D, WT C. glabrata, single experiments Exp1-3): 3.713 and 3.843
EC50 [2, 7]: 101 µM
EC50 [2, 8]: 134 µM
EC50 [2, 12]: 44.7 µM
IC50 (CgBdf1 BD1 [3]; [9]): 14.2 µM and 12.2 µM and 11.5 µM

COc1cccc(CNc2nc(-c3ccc(C)cc3)nnc2C)c1 [Compound 24f]
IC50 (CgBdf1 BD2 [1]; [10]): > 100 µM
pEC50 growth inhibition [2, 11]: 4.188
EC50 [2, 7]: > 251 µM
EC50 [2, 8]: > 251 µM
EC50 [2, 12]: 68.2 µM
IC50 (CgBdf1 BD1 [3]; [9]): 3.66 µM and 2.81 µM and 2.3 µM

COc1ccc(-c2nnc(C)c(NCc3ccccc3)n2)cc1 [Compound 24g]
pIC50 CgBD2 (CgBdf1 BD2 [1]; [10]): 4.269 and <4
pEC50 growth inhibition [2, 11]: 4.261 and 4.310
EC50 [2, 7]: > 251 µM
EC50 [2, 8]: > 251 µM
EC50 [2, 12]: 43.2 µM
pIC50 CgBD1 (CgBdf1 BD1 [3]; [9]): 6.145 and 5.997

COc1ccc(CNc2nc(-c3ccc(C)cc3)nnc2C)cc1OC [Compound 24i]
IC50 (CgBdf1 BD2 [1]; [10]): 44.1 µM and 45 µM and 41.5 µM
EC50 [2, 7]: > 251 µM
EC50 [2, 8]: > 251 µM
EC50 [2, 12]: > 251 µM
IC50 (CgBdf1 BD1 [3]; [9]): 2.61 µM and 2.54 µM and 2.62 µM

COc1ccc(CNc2nc(-c3cccc(C)c3)nnc2C)cc1OC [Compound 24j]
IC50 (CgBdf1 BD2 [1]; [10]): 57 µM and 58.2 µM and 82.4 µM
EC50 [2, 7]: > 251 µM
EC50 [2, 8]: > 251 µM
EC50 [2, 12]: > 251 µM
IC50 (CgBdf1 BD1 [3]; [9]): 4.11 µM and 5.81 µM and 4.81 µM

COC(=O)c1ccc(CNc2nc(-c3ccc(C)cc3)nnc2C)cc1 [Compound 24k, Methyl 4‐(((6‐methyl‐3‐(p‐tolyl)‐1,2,4‐triazin‐5‐yl)amino)methyl)benzoate]
IC50 (CgBdf1 BD2 [1]; [10]): > 100 µM
EC50 [2, 7]: > 251 µM
EC50 [2, 8]: > 251 µM
EC50 [2, 12]: > 251 µM
IC50 (CgBdf1 BD1 [3]; [9]): > 100 µM

COC(=O)c1cccc(CNc2nc(-c3ccc(C)cc3)nnc2C)c1 [Compound 24l, Methyl 3‐(((6‐methyl‐3‐(p‐tolyl)‐1,2,4‐triazin‐5‐yl)amino)methyl)benzoate]
IC50 (CgBdf1 BD2 [1]; [10]): > 100 µM
EC50 [2, 7]: > 251 µM
EC50 [2, 8]: > 251 µM
EC50 [2, 12]: > 251 µM
IC50 (CgBdf1 BD1 [3]; [9]): 79.4 µM and 39.6 µM and 89.9 µM

Cc1ccc(-c2nnc(C)c(NCc3ccccc3)n2)cc1 [Compound 24m, N‐benzyl‐6‐methyl‐3‐(p‐tolyl)‐1,2,4‐triazin‐5‐amine]
IC50 (CgBdf1 BD2 [1]; [10]): > 20 µM
EC50 [2, 7]: > 251 µM
EC50 [2, 8]: > 251 µM
EC50 [2, 12]: > 251 µM
IC50 (CgBdf1 BD1 [3]; [9]): > 20 µM

CCOC(=N)c1ccc(C)cc1 [Compound 65]
Raw data, WT (CgBdf1 BD1 [4]; CgBdf1 BD1 WT, first replicate column): 0.0009452
Normalized (0 to 100%), WT (CgBdf1 BD1 [4]; CgBdf1 BD1 WT, mean of the two raw values): 1.47%
Raw data, WT (CgBdf1 BD1 [4]; CgBdf1 BD1 WT, second replicate column): 0.02836
Raw data, YF mutant (CgBdf1 BD1 [4]; CgBdf1 BD1 YF mutant, first replicate column): 0.001851
Normalized (0 to 100%), YF mutant (CgBdf1 BD1 [4]; CgBdf1 BD1 YF mutant, mean of the two raw values): 0.247%
Raw data, YF mutant (CgBdf1 BD1 [4]; CgBdf1 BD1 YF mutant, second replicate column): 0.003085
Raw data, WT (CgBdf1 BD2 [5]; CgBdf1 BD2 WT, first replicate column): 0.004991
Normalized (0 to 100%), WT (CgBdf1 BD2 [5]; CgBdf1 BD2 WT, mean of the two raw values): 0.421%
Raw data, WT (CgBdf1 BD2 [5]; CgBdf1 BD2 WT, second replicate column): 0.003431
Raw data, YF mutant (CgBdf1 BD2 [5]; CgBdf1 BD2 YF mutant, first replicate column): 0.007362
Normalized (0 to 100%), YF mutant (CgBdf1 BD2 [5]; CgBdf1 BD2 YF mutant, mean of the two raw values): 0.383%
Raw data, YF mutant (CgBdf1 BD2 [5]; CgBdf1 BD2 YF mutant, second replicate column): 0.0003067

CCNC(=O)C[C@@H]1N=C(c2ccc(Cl)cc2)c2cc(OC)ccc2-n2c(C)nnc21 [I-BET762]
%Growth ([2]; Fig 3E, 50 µM, WT BDF1-flag, Exp 1-3): 107% and 101%
%Growth ([6]; BDF1-hBD1-flag): 102% and 95% and 92%
%Growth ([6]; BDF1-hBD2-flag): 105% and 93% and 100%
%Growth ([6]; humanized BDF1-flag): 83%

CCNC(=O)C[C@@H]1N=C(c2ccc(Cl)cc2)c2cc(OC)ccc2-n2c(C)nnc21 [I-BET]
OD at 600 nm ([2]; WT BDF1 strain, Exp 1-3): 0.369 and 0.413 and 0.420
OD at 600 nm ([2]; bdf1-bd1Δ strain, Exp 1-3): 0.298 and 0.365 and 0.364
OD at 600 nm ([2]; bdf1-bd2Δ strain, Exp 1-3): 0.164 and 0.171 and 0.191

COc1ccccc1S(=O)(=O)Nc1ccc2c(c1)CN(C)C(=O)N2 [PFI-1, reference compound]
pIC50 CgBD2 (CgBdf1 BD2 [1]): * 4
pIC50 CgBD1 (CgBdf1 BD1 [3]; Fig 1D/2A original data): 4.63 and 4.61

COc1ccccc1S(=O)(=O)Nc1ccc2c(c1)CN(C)C(=O)N2 [PFI]
OD at 600 nm ([2]; WT BDF1 strain, Exp 1-3): 0.381 and 0.415 and 0.390
OD at 600 nm ([2]; bdf1-bd1Δ strain, Exp 1-3): 0.323 and 0.367 and 0.349
OD at 600 nm ([2]; bdf1-bd2Δ strain, Exp 1-3): 0.181 and 0.163 and 0.165

I-BET151 [reference compound]
pIC50 CgBD2 (CgBdf1 BD2 [1]; Fig 1D/2A original data, single experiments Exp1-3, listed as IBET-151): 6.30 and 6.21 and 6.31
pIC50 CgBD2 (CgBdf1 BD2 [1]; Fig 1D/2A original data, single experiments Exp1-3, listed as i-BET151): 6.297 and 6.205
pIC50 CgBD1 (CgBdf1 BD1 [3]; Fig 1D/2A original data, listed as IBET-151): 5.54 and 5.64 and 5.77
pIC50 CgBD1 (CgBdf1 BD1 [3]; Fig 1D/2A original data, listed as i-BET151): 5.772 and 5.641
